In patent US20200115357A1, “LIVER X RECEPTORS (LXR) MODULATORS” (Phenex-FXR GmbH, priority 2017, published 2020):
Where two headings read alike, the source gives them in different places.

What was measured:
[1] = biological target: T1, LXRα ligand-binding domain (LBD) (Homo sapiens, UniProt Q13133); assay: LXR Gal4 reporter transient transfection assay (M2H), Gal4α LBD; format: cell-based; conditions: HEK293 cells; for EC50: read-out: M2H Gal4α LBD activity range (EC50)
T1 construct: expressed in transfected cells; host or cells: HEK293
T1 sequence (Q13133 155-447): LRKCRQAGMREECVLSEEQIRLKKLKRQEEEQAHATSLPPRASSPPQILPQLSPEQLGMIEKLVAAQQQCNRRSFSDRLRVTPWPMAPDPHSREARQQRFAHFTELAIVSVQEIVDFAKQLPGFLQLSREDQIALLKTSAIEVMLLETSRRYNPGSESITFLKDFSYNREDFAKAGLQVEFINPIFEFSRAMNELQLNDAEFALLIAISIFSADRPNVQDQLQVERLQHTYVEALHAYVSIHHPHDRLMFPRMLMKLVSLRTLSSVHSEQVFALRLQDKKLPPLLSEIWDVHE
Method: (§1) The tested compounds were usually dissolved, tested and stored as 20 mM stock solutions in DMSO. Since sulfonyl acetic acid derivatives tend to decarboxylate under these conditions, these stock solutions were prepared, tested and stored as 20 mM DMSO stock solutions containing 100 mM trifluoroacetic acid (5 equivalents). Sulfonyl acetic acid derivatives are shelf stable as solid at rt for long time as reported by Griesbrecht et al. (Synlett 2010:374) or Faucher et al. (J. Med. Chem. 2004; 47:18).
(§2) LXR Gal4 Reporter Transient Transfection Assays
(§3) LXRα and LXRβ activity status was determined via detection of interaction with coactivator and corepressor proteins in mammalian two-hybrid experiments (M2H). For this, via transient transfection the full length (FL) proteins of LXRα (amino acids 1-447; NP005684; SEQ ID NO:7) or LXRβ-(amino acids 1-461; NP009052; SEQ ID NO:8) or the ligand-binding domains (LBD) of LXRα (amino acids 155-447 SEQ ID NO:3) or LXRβ (amino acids 156-461; SEQ ID NO:4) were expressed from pCMV-AD (Stratagene) as fusions to the transcriptional activation domain of NFkB. As cofactors, domains of either the steroid receptor coactivator 1 (SRC1; amino acids 552-887; SEQ ID NO:5) or of the corepressor NCoR (amino acids 1903-2312 SEQ ID NO:6) were expressed as fusions to the DNA binding domain of the yeast transcription factor GAL4 (from pCMV-BD; Stratagene). Interaction was monitored via activation of a coexpressed Firefly Luciferase Reporter gene under control of a promoter containing repetitive GAL4 response elements (vector pFRLuc; Stratagene). Transfection efficiency was controlled via cotransfection of constitutively active pRL-CMV Renilla reniformis luciferase reporter (Promega). HEK293 cells were grown in minimum essential medium (MEM) with 2 mM L-glutamine and Earle's balanced salt solution supplemented with 8.3% fetal bovine serum, 0.1 mM non-essential amino acids, 1 mM sodium pyruvate, at 37° C. in 5% CO2. 3.5×10^4 cells/well were plated in 96-well cell culture plates in growth medium supplemented with 8.3% fetal bovine serum for 16-20 h to ˜90% confluency. For transfection, medium was taken off and LXR and cofactor expressing plasmids as well as the reporter plasmids are added in 30 μL OPTIMEM/well including polyethylene-imine (PEI) as vehicle. Typical amounts of plasmids transfected/well: pCMV-AD-LXR (5 ng), pCMV-BD-cofactor (5 ng), pFR-Luc (100 ng), pRL-CMV (0.5 ng). Compound stocks were prepared in DMSO, prediluted in MEM to a total volume of 120 μL, and added 4 h after addition of the transfection mixture (final vehicle concentration not exceeding 0.2%). Cells were incubated for additional 16 h, lysed for 10 min in 1× Passive Lysis Buffer (Promega) and Firefly and Renilla luciferase activities were measured sequentially in the same cell extract using buffers containing D-luciferine and coelenterazine, respectively. Measurements of luminescence were done in a BMG-Iuminometer.

[2] = biological target: T2, GST-LXRβ ligand-binding domain (Homo sapiens, UniProt P55055, DUP175-175); assay: TR-FRETβ activity assay (LXRβ-LBD / NCoA3 coactivator peptide, prestimulated with 24(S)-25-epoxycholesterol); format: biochemical; set-up: key to behavior in FRET assay: ag=agonist; ia=inverse agonist; conditions: for EC50: 1 μM 24(S)-25-epoxycholesterol as prestimulating agonist, read-out: FRETβ activity range (EC50); for behavior in FRET assay: agonist or inverse agonist
T2 construct: amino acids 156-461; NP009052; made in house; host or cells: E. coli
T2 sequence (P55055 with tags, fused parts or gaps DUP175-175): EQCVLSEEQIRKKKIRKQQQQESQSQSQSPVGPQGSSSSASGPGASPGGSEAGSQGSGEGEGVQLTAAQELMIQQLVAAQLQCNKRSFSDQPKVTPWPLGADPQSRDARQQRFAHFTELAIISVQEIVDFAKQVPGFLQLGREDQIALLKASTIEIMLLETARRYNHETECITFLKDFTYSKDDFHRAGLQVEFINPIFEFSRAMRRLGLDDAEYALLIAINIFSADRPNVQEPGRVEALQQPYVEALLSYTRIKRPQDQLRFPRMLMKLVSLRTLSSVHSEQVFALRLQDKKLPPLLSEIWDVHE
Outline: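 E. coli-expressed GST-LXRβ LBD (aa 156-461) at 76 nM with biotinylated NCoA3 coactivator peptide (400 nM), in 240 mM KCl, BSA and Triton-X-100. Anti-GST-Tb cryptate/streptavidin-XL665 TR-FRET after 1 h equilibration at 4 °C, excitation 340 nm, emission 615 and 665 nm. Run in triplicate.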

[3] = biological target: T3, LXRβ ligand-binding domain (LBD) (Homo sapiens, UniProt P55055, DUP175-175); assay: LXR Gal4 reporter transient transfection assay (M2H), Gal4β LBD; format: cell-based; conditions: HEK293 cells; read-out: M2H Gal4β LBD activity range (EC50)
T3 construct: LXRβ (amino acids 156-461); expressed in transfected cells; host or cells: HEK293
T3 sequence (P55055 with tags, fused parts or gaps DUP175-175): T2 sequence (P55055 with tags, fused parts or gaps DUP175-175)
Method: as §1, §2, §3

[4] = human liver microsomes; cited from earlier work
[5] = rat liver microsomes; cited from earlier work
[6] = Pharmacokinetics in mice, blood and liver exposure via LC-MS; format: in vivo; conditions: for oral bioavailability (in words): mice, oral administration; for blood exposure, 4 h / liver exposure, 4 h: po, Dose (mg) 20, C57BL/6J mice, 4 h after administration
Method: The pharmacokinetics of different sulfonamides was assessed in mice after single dosing and oral and intraperitoneal administrations. Blood and liver exposure was measured via LC-MS.
The study design was as follows:
Animals: C57BL/6J (Janvier) males
Diet: standard rodent chow
Vehicle for i.p. injection: 0.5% HPMC (w:v) in water, injection volume: <5 mL/kg
Animal handling: animals were withdrawn from food at least 12 h before administration
Design: single dose oral and bid ip administration, n=3 animals per group
Sacrifice: at t=4 h after administration
Bioanalytics: LC-MS of liver and blood samples

[7] = system: LXR; conditions: acid formed by ester cleavage of SR9238; cited from earlier work

Row | Compound | EC50 [1] [nM] | EC50 [2] [nM] | behavior in FRET assay [2] | EC50 [3] [nM] | also measured
1 | Cc1cc(C)c(S(=O)(=O)N(Cc2ccc(C(F)(F)F)o2)CC2CC=C(c3cccc(C(C)(C)C(=O)O)c3)CC2)c(C)c1 (centres unmarked) [Example 19, 2-Methyl-2-(4′-(((2,4,6-trimethyl-N-((5-(trifluoromethyl)furan-2-yl)methyl)phenyl)sulfon-amido)methyl)-2′,3′,4′,5′-tetrahydro-[1,1′-biphenyl]-3-yl)propanoic acid] | 100 to 1000 | 100 to 1000 | ia | < 100 | –
2 | Cc1cc(C)c(S(=O)(=O)N(Cc2ccc(C(F)(F)F)o2)CC2CCC(c3cccc(C(C)(C)C(=O)O)c3)CC2)c(C)c1 (centres unmarked) [Example 19/1] | – | 1000 to 10000 | ia | 100 to 1000 | M2H Gal4α LBD activity range (EC50) [1]: inactive
3 | COc1cc(-c2ccc3c(c2)C(C)(C)C(=O)OC3)ccc1CN(Cc1ccc(C(F)(F)F)o1)S(=O)(=O)c1c(C)ccc2ccccc12 [Example 22, N-(4-(4,4-Dimethyl-3-oxoisochroman-6-yl)-2-methoxybenzyl)-2-methyl-N-((5-(trifluoro-methyl)furan-2-yl)methyl)naphthalene-1-sulfonamide] | 1000 to 10000 | 1000 to 10000 | ia | < 100 | –
4 | COc1cc(-c2ccc(CO)c(C(C)(C)C(=O)[O-])c2)ccc1CN(Cc1ccc(C(F)(F)F)o1)S(=O)(=O)c1c(C)ccc2ccccc12.[Na+] [Example 23, Sodium 2-(4-(hydroxymethyl)-3′-methoxy-4′-(((2-methyl-N-((5-(trifluoromethyl)furan-2-yl)methyl)naphthalene)-1-sulfonamido)methyl)-[1,1′-biphenyl]-3-yl)-2-methylpropanoate] | < 100 | 100 to 1000 | ia | < 100 | –
5 | Cc1cc(C)c(S(=O)(=O)N(Cc2ccc(-c3cccc(CCC(=O)O)c3)cc2)Cc2ccc(C(F)(F)F)o2)c(C)c1 [Example 25, 3-(4′-(((2,4,6-Trimethyl-N-((5-(trifluoromethyl)furan-2-yl)methyl)phenyl)sulfonamido)methyl)-[1,1′-biphenyl]-3-yl)propanoic acid] | 100 to 1000 | 100 to 1000 | ia | < 100 | –
6 | Cc1cc(C)c(S(=O)(=O)N(Cc2ccc(-c3cccc(S(=O)(=O)NCC(=O)O)c3)cc2)Cc2ccc(C(F)(F)F)o2)c(C)c1 [Example 25/1] | 1000 to 10000 | 1000 to 10000 | ia | 1000 to 10000 | –
7 | Cc1cc(C)c(S(=O)(=O)N(Cc2ccc(-c3cccc(C(=O)O)c3)cc2)Cc2ccc(C(F)(F)F)o2)c(C)c1 [Example C6, 4′-(((2,4,6-Trimethyl-N-((5-(trifluoromethyl)furan-2-yl)methyl)phenyl)sulfonamido)methyl)-[1,1′-biphenyl]-3-carboxylic acid] | 1000 to 10000 | > 10000 | ia | 100 to 1000 | –
8 | Cc1cc(C)c(S(=O)(=O)N(Cc2ccc(-c3cccc(Cc4nn[nH]n4)c3)cc2)Cc2ccc(C(F)(F)F)o2)c(C)c1 [Example C7, N-((3′-((2H-Tetrazol-5-yl)methyl)-[1,1′-biphenyl]-4-yl)methyl)-2,4,6-trimethyl-N-((5-(trifluoro-methyl)furan-2-yl)methyl)benzenesulfonamide] | 100 to 1000 | 1000 to 10000 | ia | 100 to 1000 | –
9 | Cc1cc(C)c(S(=O)(=O)N(Cc2ccc(-c3cccc(S(C)(=O)=O)c3)cc2)Cc2ccc(C(F)(F)F)o2)c(C)c1 [GSK2033, reference compound] | – | – | – | – | clearance (Clint) [4]: > 1.0 mL/min/mg prot; clearance (Clint) [5]: > 1.0 mL/min/mg prot; oral bioavailability (in words) [6]: not orally bioavailable; blood exposure, 4 h [6]: (14.4 ng/mL); liver exposure, 4 h [6]: (9.6 ng/mL)
10 | CCOC(=O)c1ccc(CN(Cc2ccc(-c3cccc(S(C)(=O)=O)c3)cc2)S(=O)(=O)c2c(C)cc(C)cc2C)o1 [SR9238, reference compound] | – | – | – | – | oral bioavailability (in words) [6]: not orally bioavailable; blood exposure, 4 h [6]: po: below LLOQ; liver exposure, 4 h [6]: po: below LLOQ
11 | Cc1cc(C)c(S(=O)(=O)N(Cc2ccc(-c3cccc(S(C)(=O)=O)c3)cc2)Cc2ccc(C(=O)O)o2)c(C)c1 [SR10389] | – | – | – | – | activity on LXR (in words) [7]: inactive
